pIC50: −log10 of the molar value. Structures can show the parent of a compound that is named as a salt.
Key:
[1] = test system: rat brain synaptosomal preparation; assay: Calcium uptake-inhibiting action: inhibition of potassium-stimulated 45Ca uptake in a rat brain synaptosomal preparation; type: biochemical, rat (Wistar); conditions: rat brain cortex synaptosomes; 60 mM potassium chloride stimulation; 34° C.; incubation 20 seconds; pH 7.4; read-out: IC50 (50% inhibition of the stimulated 45Ca uptake)
Source text: The calcium uptake-inhibiting action of the novel compounds of formula (I) was studied on a rat brain synaptosomal preparation by using the method of P. H. Wu et al. [J. Neurochem. 39, 700 (1982)].
Wistar rats weighting 180 to 200 g were decapitated, their brains were collected in an ice-cold physiological saline solution, the cortex was removed and purified from the white substance. The tissue was homogenized in 10 volumes of 0.32M sucrose solution by using a glass-teflon potter. After centrifuging the homogenate at a rate of 1000×g at 4° C. for 10 minutes, the supernatant was further centrifuged at 10000×g for 20 minutes. The sediment was taken up in a 0.32M sucrose solution in such a way that the protein content of the preparation was adjusted to 20 mg/ml.
The medium (containing 112 mM of sodium chloride, 5 mM of potassium chloride, 1.3 mM of magnesium chloride, 1.2 mM of sodium dihydrogen phosphate, 1.2 mM of calcium chloride, 10 mM of glucose, 20 mM of IRIS buffer) used for the incubation was saturated with carbogen, consisting of 95% by volume of oxygen and 5% by volume of carbon dioxide, up to a pH of 7.4. After adding the test substances to the medium, the synaptosomal preparation was added in an amount corresponding to 1 mg of protein. The incubation was carried out in a final volume of 1 ml. The samples were pre-incubated at 34° C. for 20 minutes. The calcium uptake was begun by using a ^45 Cacl2 solution of 75 nCi activity. Potassium chloride used for investigating the potassium-induced ^45 Ca uptake was employed in 60 mM concentration whereas sodium chloride was added in the same concentration to the control samples. The incubation lasted 20 seconds. The reaction was stopped by 5 ml of a stopping solution containing 120 mM of sodium chloride, 5 mM of potassium chloride, 5 mM of EGTA and 20 mM of TRIS at pH 7.4. The samples were filtered through a Whatman GF/C filter paper and twice washed with 5 ml of a washing solution each, containing 132 mM of sodium chloride, 5 mM of potassium chloride, 1.3 mM of magnesium chloride, 1.2 mM of calcium chloride and 20 mM of IRIS at pH 7.4. (Abbreviations used above: TRIS means tris(hydroxymethyl)aminomethane; EGTA means ethylene glycol bis(β-aminoethyl) ether-N,N,N',N'-tetraacetic acid).
The filter papers were put into glass cuvets, 10 ml of a scintillation liquid each were added, then the radioactivity of the samples was measured in an 1219 Rackbeta (LKB Wallace) liquid scintillation spectrophotometer.
The IC50 values obtained by examination of the concentration/effect correlations are shown in Table I. IC50 value means the molar concentration of the test compounds which causes 50% inhibition of the stimulated ^45 Ca uptake.

CFLP mice = assay: Antihypoxic effect: asphyxial action in closed glass cylinder (method of Caillard et al.), survival time; type: in vivo, mouse (CFLP); conditions: 50 mg/kg oral, 60 minutes before test; n = 10; protected = surviving longer by 30% than average survival time of control group (23.5 ± 2.51 sec)
Method: The antiphypoxic effect was studied by using two methods. According to the method of C. Caillard et al. [Life Sci. 16, 1607 (1975)] the asphyxial action was determined after starvation for 16 hours on CFLP mice of both sexes weighting 24 to 26 g. Each animal was placed in a separate well-closed glass cylinder. The interval passing from closing the cylinder until the cessation of the last visible respiratory movement was registered as survival time. Animals, surviving longer by 30% than the average survival time of the control group, were considered to be protected. The test substances were administered in an oral dose of 50 mg/kg by 60 minutes before starting the examination.

[2] = test system: Male Hannover-Wistar rats; assay: Potassium cyanide test: protective effect against histotoxic hypoxia; type: in vivo, rat (Hannover-Wistar); conditions: Rattus norvegicus, po, read-out: ED50 p.o. (dose protecting half of the treated animals from the hypoxia)

Compound | pIC50 [1] | Protected animals (CFLP mice) [%] | ED50 [2] [mg/kg]
CCCCN1C(=O)OC2(CCN(CCCC(c3ccc(F)cc3)c3ccc(F)cc3)CC2)C1(C)O (stereo not drawn) [Compound 5, 1-Oxa-2-oxo-3-butyl-4-hydroxy-4-methyl-8-[4,4-bis(4-fluorophenyl)butyl]-3,8-diazaspiro[4,5]decane hydrochloride] | 5.21 | – | –
CCCN1C(=O)OC2(CCN(CCc3ccc(F)cc3)CC2)C1(C)O (stereo not drawn) [Compound 7, 1-Oxa-2-oxo-3-propyl-4-hydroxy-4-methyl-8-[2-(4-fluorophenyl)ethyl]-3,8-diazaspiro[4,5]decane] | – | 40 | –
CCN1C(=O)OC2(CCN(CCc3ccc(F)cc3)CC2)C1(C)O (stereo not drawn) [Compound 9, 1-Oxa-2-oxo-3-ethyl-4-hydroxy-4-methyl-8-[2-(4-fluorophenyl)ethyl]-3,8-diazaspiro[4,5]decane] | – | 60 | –
CN1C(=O)OC2(CCN(CCc3ccc(F)cc3)CC2)C1(C)O (stereo not drawn) [Compound 6, 1-Oxa-2-oxo-3,4-dimethyl-4-hydroxy-8-[2-(4-fluorophenyl)ethyl]-3,8-diazaspiro[4,5]decane] | – | 60 | –
C=C1N(C(C)(C)C)C(=O)OC12CCN(CCCC(c1ccc(F)cc1)c1ccc(F)cc1)CC2 [Compound 2, 1-Oxa-2-oxo-3-tert-butyl-4-methylene-8-[4,4-bis(4-fluorophenyl)butyl]-3,8-diazaspiro[4,5]decane] | 5.23 | – | 39.9
C=C1N(C2CCCCC2)C(=O)OC12CCN(CCCC(c1ccc(F)cc1)c1ccc(F)cc1)CC2 [Compound 4, 1-Oxa-2-oxo-3-cyclohexyl-4-methylene-8-[4,4-bis(4-fluorophenyl)butyl]-3,8-diazaspiro[4,5]decane] | 5.28 | – | 37.9
C=C1N(CCCC)C(=O)OC12CCN(CCCC(c1ccc(F)cc1)c1ccc(F)cc1)CC2 [Compound 1, 1-Oxa-2-oxo-3-butyl-4-methylene-8-[4,4-bis(4-fluorophenyl)butyl]-3,8-diazaspiro[4,5]decane] | 5.24 | – | 40.9
C=C1N(c2ccccc2)C(=O)OC12CCN(CCCC(c1ccc(F)cc1)c1ccc(F)cc1)CC2 [Compound 3, 1-Oxa-2-oxo-3-phenyl-4-methylene-8-[4,4-bis(4-fluorophenyl)butyl]-3,8-diazaspiro[4,5]decane] | 5.68 | – | –
CC1(O)N(C2CCCCC2)C(=O)OC12CCN(CCc1ccc(F)cc1)CC2 (stereo not drawn) [Compound 8, 1-Oxa-2-oxo-3-cyclohexyl-4-hydroxy-4-methyl-8-[2-(4-fluorophenyl)ethyl]-3,8-diazaspiro[4,5]decane] | – | 60 | –

From patent US5118687A, “1-oxa-2-oxo-8-azaspiro(4,5)decane derivatives, pharmaceutical compositions containing them and process for preparing same” (Richter Gedeon Vegyeszeti Gyar Rt., priority 1989, dated 1992)
